“And” between values parts separate entries of the source, which are not always exact repeats. Equal entries are not always repeated.
Columns and labels:
[1] = tested on: P aeruginosas; experiment: MIC, microbiological activity (Table 3); format: cell-based; conditions: L 4 P aeruginosas ATCC10145; read-out: MIC
[2] = tested on: skin and soft tissue infections (SSTI); experiment: Phase II SSTI trial: clinical response; format: in vivo, human
Method: This randomized, controlled study evaluated the safety and efficacy of two dose regimens of dalbavancin.
There were 62 patients randomized into the study; all received at least one dose of study medication. Four study populations were evaluated for safety and efficacy and were defined as follows: The intent-to-treat (ITT) population included all patients who received at least one dose of study drug (all randomized study subjects).
The effectiveness of the three treatment regimens was determined by assessing the patients' clinical response and the documented or presumed microbiological responses. The primary efficacy endpoint was clinical response at the follow-up visit for the clinically evaluable population. Clinical response, for both EOT and FU visits, was categorized as success (cure or improvement) or failure (including indeterminate results). Patients classified as successes must not have received additional systemic antibacterial treatment for their infection. Failure was defined as persistence of one or more local or systemic signs and symptoms of SSTI such that treatment with new or additional systemic antibacterial agents was required for the SSTI.

[3] = tested on: S. pneumoniae; experiment: Murine thigh-infection model (time kill, dosing regimen, PK/PD, neutrophils; Tables 31-33); format: in vivo, mice
Method: Each point represents the mean of 4 thighs. Five dose levels, ranging 16-fold were used.
Five different doses (two-fold increases) were used. […] Each point represents the mean of 4 thighs.
Each point represents the mean of four thighs.
Each point represents the mean value from 4 thighs. The static dose, and the doses associated with a 1 and 2 log kill were calculated from the parameters estimated by non-linear regression using the Hill equation.

[4] = Mean ± SD of S. pneumoniae strains, q 24 h regimen
[5] = Mean ± SD of S. pneumoniae strains, q 72 h regimen

SMILES: CN[C@H]1C(=O)N[C@@H]2Cc3ccc(cc3)Oc3cc4cc(c3O[C@@H]3O[C@H](C(=O)O)[C@@H](O)[C@H](O)[C@H]3NC(=O)CCCCCCCCC(C)C)Oc3ccc(cc3Cl)[C@@H](O)[C@@H]3NC(=O)[C@H](NC(=O)[C@@H]4NC(=O)[C@@H](NC2=O)c2cc(cc(O)c2Cl)Oc2cc1ccc2O)c1ccc(O)c(c1)-c1c(O[C@H]2O[C@H](CO)[C@@H](O)[C@H](O)[C@@H]2O)cc(O)cc1[C@@H](C(=O)NCCCN(C)C)NC3=O [Dalbavancin]
- MIC [1]: > 32 µg/mL
- Clinical Success Rate ([2]; Clinically evaluable at EOT, Single-dose (1100 mg)): 13/16 (61.5) %
- Clinical Success Rate ([2]; Clinically evaluable at EOT, Two-dose (1000/500 mg)): 16/17 (94.1) %
- Clinical Success Rate ([2]; Clinically evaluable at FU, Single-dose (1100 mg)): 8/13 (61.5) %
- Clinical Success Rate ([2]; Clinically evaluable at FU, Two-dose (1000/500 mg)): 16/17 (94.1) %
- Clinical Success Rate ([2]; ITT at EOT, Single-dose (1100 mg)): 15/20 (75.0) %
- Clinical Success Rate ([2]; ITT at EOT, Two-dose (1000/500 mg)): 19/21 (90.5) %
- Clinical Success Rate ([2]; ITT at FU, Single-dose (1100 mg)): 12/20 (60.0) %
- Clinical Success Rate ([2]; ITT at FU, Two-dose (1000/500 mg)): 19/21 (90.5) %
- Clinical Success Rate ([2]; MITT at EOT, Single-dose (1100 mg)): 10/14 (71.4) %
- Clinical Success Rate ([2]; MITT at EOT, Two-dose (1000/500 mg)): 12/13 (92.3) %
- Clinical Success Rate ([2]; MITT at FU, Single-dose (1100 mg)): 7/14 (50.0) %
- Clinical Success Rate ([2]; MITT at FU, Two-dose (1000/500 mg)): 12/13 (92.3) %
- Clinical Success Rate ([2]; MITT population with MRSA, FU assessment, single-dose): 50%
- Clinical Success Rate ([2]; MITT population with MRSA, FU assessment, two-dose): 80%
- Clinical Success Rate ([2]; Microbiologically evaluable at EOT, Single-dose (1100 mg)): 10/13 (76.9) %
- Clinical Success Rate ([2]; Microbiologically evaluable at EOT, Two-dose (1000/500 mg)): 10/11 (90.9) %
- Clinical Success Rate ([2]; Microbiologically evaluable at FU, Single-dose (1100 mg)): 6/11 (54.5) %
- Clinical Success Rate ([2]; Microbiologically evaluable at FU, Two-dose (1000/500 mg)): 10/11 (90.9) %
- Clinical Success Rate ([2]; clinically-evaluable population, FU assessment, single-dose: 1100 mg IV day 1): 61.5%
- Clinical Success Rate ([2]; clinically-evaluable population, FU assessment, two-dose: 1 g IV day 1 + 500 mg IV day 8): 94.1% and 94%
- 1 Log Kill f24AUC/MIC [3, 4]: 21 ± 7.4
- 1 Log Kill mg/kg/24 h [3, 4]: 1.1 ± 0.47 mg/kg/24 h
- 2 Log Kill f24AUC/MIC [3, 4]: 24.3 ± 8.2
- 2 Log Kill mg/kg/24 h [3, 4]: 1.23 ± 0.52 mg/kg/24 h
- Static Effect f24AUC/MIC [3, 4]: 17.6 ± 6.9
- Static Effect mg/kg/24 h [3, 4]: 0.91 ± 0.44 mg/kg/24 h
- 1 Log Kill f24AUC/MIC [3, 5]: 9.0 ± 5.8
- 1 Log Kill mg/kg/24 h [3, 5]: 0.93 ± 0.24 mg/kg/24 h
- 2 Log Kill f24AUC/MIC [3, 5]: 16.6 ± 12.3
- 2 Log Kill mg/kg/24 h [3, 5]: 1.13 ± 0.36 mg/kg/24 h
- Static Effect f24AUC/MIC [3, 5]: 7.2 ± 4.5
- Static Effect mg/kg/72 h [3, 5]: 0.77 ± 0.18 mg/kg/72 h
- 1 Log Kill f24AUC/MIC ([3]; SP1199, q 24 h regimen): 19.4
- 1 Log Kill mg/kg/24 h ([3]; SP1199, q 24 h regimen): 0.49 mg/kg/24 h
- 2 Log Kill f24AUC/MIC ([3]; SP1199, q 24 h regimen): 22.7
- 2 Log Kill mg/kg/24 h ([3]; SP1199, q 24 h regimen): 0.57 mg/kg/24 h
- Static Effect f24AUC/MIC ([3]; SP1199, q 24 h regimen): 16.0
- Static Effect mg/kg/24 h ([3]; SP1199, q 24 h regimen): 0.40 mg/kg/24 h
- 1 Log Kill f24AUC/MIC ([3]; SP1199, q 72 h regimen): 12.1
- 1 Log Kill mg/kg/24 h ([3]; SP1199, q 72 h regimen): 0.85 mg/kg/24 h
- 2 Log Kill f24AUC/MIC ([3]; SP1199, q 72 h regimen): 35.3
- 2 Log Kill mg/kg/24 h ([3]; SP1199, q 72 h regimen): 0.99 mg/kg/24 h
- Static Effect f24AUC/MIC ([3]; SP1199, q 72 h regimen): 10.3
- Static Effect mg/kg/72 h ([3]; SP1199, q 72 h regimen): 0.72 mg/kg/72 h
- 1 Log Kill f24AUC/MIC ([3]; SP1293, q 24 h regimen): 21.7
- 1 Log Kill mg/kg/24 h ([3]; SP1293, q 24 h regimen): 0.55 mg/kg/24 h
- 2 Log Kill f24AUC/MIC ([3]; SP1293, q 24 h regimen): 25.9
- 2 Log Kill mg/kg/24 h ([3]; SP1293, q 24 h regimen): 0.65 mg/kg/24 h
- Static Effect f24AUC/MIC ([3]; SP1293, q 24 h regimen): 17.4
- Static Effect mg/kg/24 h ([3]; SP1293, q 24 h regimen): 0.44 mg/kg/24 h
- 1 Log Kill f24AUC/MIC ([3]; SP1293, q 72 h regimen): 18
- 1 Log Kill mg/kg/24 h ([3]; SP1293, q 72 h regimen): 1.28 mg/kg/24 h
- 2 Log Kill f24AUC/MIC ([3]; SP1293, q 72 h regimen): 23.8
- 2 Log Kill mg/kg/24 h ([3]; SP1293, q 72 h regimen): 1.68 mg/kg/24 h
- Static Effect f24AUC/MIC ([3]; SP1293, q 72 h regimen): 14.1
- Static Effect mg/kg/72 h ([3]; SP1293, q 72 h regimen): 1.01 mg/kg/72 h
- 1 Log Kill f24AUC/MIC ([3]; SP1325, q 24 h regimen): 31.8
- 1 Log Kill mg/kg/24 h ([3]; SP1325, q 24 h regimen): 1.6 mg/kg/24 h
- 2 Log Kill f24AUC/MIC ([3]; SP1325, q 24 h regimen): 34.5
- 2 Log Kill mg/kg/24 h ([3]; SP1325, q 24 h regimen): 1.73 mg/kg/24 h

From US8143212B2 (Vicuron Pharmaceuticals Inc., priority 2002, dated 2012)
